A word on the IC50: it is the concentration that inhibits the measured activity by half. A higher IC50 goes with a need for much substance. In general, microsomal CLint refers to the rate of metabolic loss divided by the concentration. A high value points to faster metabolism.

Consider two molecules from patent US20100069346A1, “New Azetidine Derivatives as Neurokinin Receptor Antagonists for the Treatment of Gastrointestinal Diseases” (priority 2005, published 2010).

For data set [1], the target named is T1, human NK1 receptor (Homo sapiens, UniProt P25103).
T1 construct: expressed in transfected cells; host or cells: CHO cells (AstraZeneca R&D Wilmington), cDNA in pRcCMV
T1 sequence (P25103 whole entry): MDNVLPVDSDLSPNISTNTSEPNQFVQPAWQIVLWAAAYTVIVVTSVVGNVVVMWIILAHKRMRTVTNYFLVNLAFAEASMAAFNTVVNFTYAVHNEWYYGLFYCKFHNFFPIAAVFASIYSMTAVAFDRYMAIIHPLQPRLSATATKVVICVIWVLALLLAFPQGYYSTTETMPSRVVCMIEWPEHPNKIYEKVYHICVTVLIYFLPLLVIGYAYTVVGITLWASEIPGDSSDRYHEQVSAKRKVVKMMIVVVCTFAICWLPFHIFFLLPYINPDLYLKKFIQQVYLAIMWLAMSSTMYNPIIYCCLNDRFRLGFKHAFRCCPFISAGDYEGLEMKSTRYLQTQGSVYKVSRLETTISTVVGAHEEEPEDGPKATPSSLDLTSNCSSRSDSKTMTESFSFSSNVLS
Put plainly: FLIPR assay, inhibition of human NK1 receptor activation (intracellular Ca2+). The class given is cell-based. The note with it: CHO cells with human NK1 receptor, agonist Substance P, read-out: pKB (NK1) (converted). The protocol:
(§1) Chinese Hamster Ovary (CHO) K1 cells (obtained from ATCC) were stably transfected with the human NK2 receptor (hNK2R cDNA in pRc/CMV, Invitrogen) or the human NK3 receptor (hNK3R in pcDNA 3.1/Hygro (+)/IRES/CD8, Invitrogen vector modified at AstraZeneca EST-Bio UK, Alderley Park). The cells were transfected with the cationic lipid reagent LIPOFECTAMINE™ (Invitrogen) and selection was performed with Geneticin (G418, Invitrogen) at 1 mg/ml for the hNK2R transfected cells and with Hygromycin (Invitrogen) at 500 μg/ml for the hNK3R transfected cells. Single cell clones were collected by aid of Fluorescence Activated Cell Sorter (FACS), tested for functionality in a FLIPR assay (see below), expanded in culture and cryopreserved for future use. CHO cells stably transfected with human NK1 receptors originates from AstraZeneca R&D, Wilmington USA. Human NK1 receptor cDNA (obtained from RNA-PCR from lung tissue) was subcloned into pRcCMV (Invitrogen). Transfection was performed by Calcium Phosphate and selection with 1 mg/ml G418. […]
(§2) The activity of a compound of the invention to inhibit NK1/NK2/NK3 receptor activation measured as NK1/NK2/NK3 receptor mediated increase in intracellular Ca^2+ was assessed by the following procedure: […]

Data set [2] concerns the target T2, human NK2 receptor (Homo sapiens, UniProt P21452).
T2 construct: expressed in transfected cells; host or cells: CHO-K1 cells (ATCC), hNK2R cDNA in pRc/CMV
T2 sequence (P21452 1-398): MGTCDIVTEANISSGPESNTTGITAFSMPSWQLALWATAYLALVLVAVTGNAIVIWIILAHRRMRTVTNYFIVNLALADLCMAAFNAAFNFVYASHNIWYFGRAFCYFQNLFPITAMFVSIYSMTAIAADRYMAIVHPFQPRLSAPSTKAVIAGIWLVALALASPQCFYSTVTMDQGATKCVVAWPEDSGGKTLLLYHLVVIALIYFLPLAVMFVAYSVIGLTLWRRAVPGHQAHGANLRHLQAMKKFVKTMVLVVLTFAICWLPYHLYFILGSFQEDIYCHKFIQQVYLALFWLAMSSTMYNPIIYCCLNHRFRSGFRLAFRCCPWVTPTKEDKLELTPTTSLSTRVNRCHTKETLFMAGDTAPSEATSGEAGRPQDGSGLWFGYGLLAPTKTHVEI
Put plainly: FLIPR assay, inhibition of human NK2 receptor activation (intracellular Ca2+). The following applies: CHO cells with human NK2 receptor, agonist NKA, read-out: pKB (NK2) (converted). The class given is cell-based. The method, then: as §1, §2

Data set [3] has as its target T3, human NK3 receptor (Homo sapiens, UniProt P29371).
T3 construct: expressed in transfected cells; host or cells: CHO-K1 cells (ATCC), hNK3R in pcDNA 3.1/Hygro (+)/IRES/CD8
T3 sequence (P29371 1-465): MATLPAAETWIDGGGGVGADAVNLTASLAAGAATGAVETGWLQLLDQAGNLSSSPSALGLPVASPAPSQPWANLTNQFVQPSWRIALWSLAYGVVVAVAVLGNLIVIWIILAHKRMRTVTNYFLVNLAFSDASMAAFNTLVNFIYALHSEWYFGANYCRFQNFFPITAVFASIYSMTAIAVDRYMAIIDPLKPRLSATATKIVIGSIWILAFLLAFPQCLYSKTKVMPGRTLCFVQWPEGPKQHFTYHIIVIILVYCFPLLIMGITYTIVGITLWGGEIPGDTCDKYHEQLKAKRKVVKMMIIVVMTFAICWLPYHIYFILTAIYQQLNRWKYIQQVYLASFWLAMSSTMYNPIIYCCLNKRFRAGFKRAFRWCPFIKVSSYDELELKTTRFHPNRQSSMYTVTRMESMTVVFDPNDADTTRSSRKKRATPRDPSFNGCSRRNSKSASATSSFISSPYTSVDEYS
Put plainly: FLIPR assay, inhibition of human NK3 receptor activation (intracellular Ca2+). The note with it: CHO cells with human NK3 receptor, agonist Pro-7-NKB, read-out: pKB (NK3) (converted). In kind it is cell-based. The method, then: as §1, §2

In data set [4] the target is hERG-encoded potassium channel (Homo sapiens, UniProt Q12809). Put plainly: Activity against hERG (planar-array-based voltage clamp, Kiss et al.). In kind it is cell-based. The text has this:
The activity of compounds according to formula I against the hERG-encoded potassium channel can be determined according to Kiss L, et al. Assay Drug Dev Technol. 1 (2003), 127-35: “High throughput ion-channel pharmacology: planar-array-based voltage clamp”.

In data set [5] the target is CYP3A4 (Homo sapiens, UniProt P08684). Put plainly: CYP3A4 inhibition assay (Bapiro et al.). In kind it is in vitro ADME. The text has this:
It is well known that severe problems such as toxicity may occur if plasma levels of one medication are altered by the co-administration of another drug. […] CYP (cytochrome P450) 3A4 is the most important enzyme in the human liver as a majority of oxidised drugs have been biotransformed by this enzyme. Accordingly, it is undesirable to employ a medication having a significant degree of such liver enzyme inhibiting properties. […] Thus, there is a need for a novel NK receptor antagonist with improved pharmacokinetic properties. The present invention provides compounds with CYP3A4 enzyme inhibiting properties at a low level, as comparatively high IC50 values are obtained in a CYP3A4 inhibiting assay. Said method for determining CYP3A4 inhibition is described in Bapiro et al; Drug Metab. Dispos. 29, 30-35 (2001).
The IC50 values tested according to Bapiro et al; Drug Metab. Dispos. 29, 30-35 (2001) were generally greater than 2 μM.

Data set [6] in a line: Metabolic stability in liver microsomes (HLM). In kind it is in vitro ADME. The note with it: pH 7.4; human liver microsomes. The protocol: Stability against human microsomal metabolism in vitro is indicative of stability towards metabolism in vivo.
The metabolic stability of compounds according to formula I can be determined as described below: […]
The rate of biotransformation can be measured as either metabolite(s) formation or the rate of disappearance of the parent compound. The experimental design involves incubation of low concentrations of substrate (usually 1.0 μM) with liver microsomes (usually 0.5 mg/ml) and taking out aliquots at varying time points (usually 0, 5, 10, 15, 20, 30, 40 min.). The test compound is usually dissolved in DMSO. The DMSO concentration in the incubation mixture is usually 0.1% or less since more solvent can drastically reduce the activities of some CYP450s. Incubations are done in 100 mM potassium phosphate buffer, pH 7.4 and at 37° C. Acetonitrile or methanol is used to stop the reaction.
(Liver microsomes are a subcellular fraction often used to study metabolism.)

For data set [7], the target named is T4, Human Neurokinin-2 (NK2) Receptor (Homo sapiens, UniProt P21452).
T4 sequence (P21452 1-398): T2 sequence (P21452 1-398)
The following applies: Bioorg. Med. Chem. Lett. (2003), 13, 2211-2215; cited from earlier work.

Molecules are shown by their SMILES.

Sequence of hERG-encoded potassium channel (Q12809 whole entry): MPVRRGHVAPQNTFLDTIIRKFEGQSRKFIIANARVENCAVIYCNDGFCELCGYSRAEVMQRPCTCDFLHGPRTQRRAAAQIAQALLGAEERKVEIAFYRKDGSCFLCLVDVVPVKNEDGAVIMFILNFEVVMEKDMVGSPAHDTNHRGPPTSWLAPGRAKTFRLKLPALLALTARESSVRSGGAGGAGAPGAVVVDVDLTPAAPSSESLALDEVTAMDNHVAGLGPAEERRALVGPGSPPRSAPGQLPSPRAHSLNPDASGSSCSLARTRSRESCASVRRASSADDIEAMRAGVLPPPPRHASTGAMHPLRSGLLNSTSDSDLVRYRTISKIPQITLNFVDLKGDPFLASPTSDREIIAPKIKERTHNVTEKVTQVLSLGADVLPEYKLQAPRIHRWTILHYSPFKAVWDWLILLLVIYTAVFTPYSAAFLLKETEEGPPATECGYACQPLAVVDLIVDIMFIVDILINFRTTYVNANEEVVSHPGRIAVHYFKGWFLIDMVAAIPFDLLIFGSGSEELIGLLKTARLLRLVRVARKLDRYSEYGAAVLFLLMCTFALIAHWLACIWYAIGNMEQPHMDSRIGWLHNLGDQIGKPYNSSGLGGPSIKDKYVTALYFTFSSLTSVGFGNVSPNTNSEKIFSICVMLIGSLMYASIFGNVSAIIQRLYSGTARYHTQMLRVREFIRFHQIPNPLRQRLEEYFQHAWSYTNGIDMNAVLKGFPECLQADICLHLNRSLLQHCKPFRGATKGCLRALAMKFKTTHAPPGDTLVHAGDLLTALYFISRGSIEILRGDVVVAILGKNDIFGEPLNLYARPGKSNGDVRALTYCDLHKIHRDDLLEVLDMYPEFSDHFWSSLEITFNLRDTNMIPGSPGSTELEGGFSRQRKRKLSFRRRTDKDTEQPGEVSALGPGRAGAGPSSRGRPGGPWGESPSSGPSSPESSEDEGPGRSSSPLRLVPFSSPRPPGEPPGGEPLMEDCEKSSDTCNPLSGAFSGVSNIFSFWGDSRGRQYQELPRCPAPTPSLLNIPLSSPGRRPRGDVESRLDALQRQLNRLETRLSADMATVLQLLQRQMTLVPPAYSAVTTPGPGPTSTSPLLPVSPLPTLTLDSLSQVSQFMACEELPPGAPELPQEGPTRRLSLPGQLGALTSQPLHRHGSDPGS
Sequence of CYP3A4 (P08684 whole entry): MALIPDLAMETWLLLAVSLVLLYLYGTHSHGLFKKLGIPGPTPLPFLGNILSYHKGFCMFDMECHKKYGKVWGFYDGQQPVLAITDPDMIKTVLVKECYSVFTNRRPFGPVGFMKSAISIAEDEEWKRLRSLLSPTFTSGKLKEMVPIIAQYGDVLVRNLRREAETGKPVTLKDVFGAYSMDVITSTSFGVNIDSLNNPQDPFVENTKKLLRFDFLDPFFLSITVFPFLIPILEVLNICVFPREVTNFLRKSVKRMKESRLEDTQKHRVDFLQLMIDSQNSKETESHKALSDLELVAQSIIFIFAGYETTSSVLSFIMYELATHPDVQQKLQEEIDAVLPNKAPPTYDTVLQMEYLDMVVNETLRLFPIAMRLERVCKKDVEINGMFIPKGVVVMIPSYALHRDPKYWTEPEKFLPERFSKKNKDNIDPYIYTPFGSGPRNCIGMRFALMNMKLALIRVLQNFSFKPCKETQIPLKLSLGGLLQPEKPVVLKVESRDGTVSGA

As to `CN(C[C@@H](CCN1CC(N2CCOC[C@H]2CCO)C1)c1ccc(F)cc1)C(=O)c1cc(Br)cc(C(F)(F)F)c1` [Ex 5, 3-Bromo-N-((2S)-2-(4-fluorophenyl)-4-{3-[(3R)-3-(2-hydroxyethyl)morpholin-4-yl]azetidin-1-yl}butyl)-N-methyl-5-(trifluoromethyl)benzamide], the Kb in data set [1] was 7.94 nM; in data set [2], 25.1 nM; in data set [3] it was 20 nM. Further, the results for the half-inhibitory concentration (IC50) in data set [4] and in data set [5] were 18.8 µM and 19.2 µM, respectively. For the same molecule, the microsomal CLint at 1 μM in data set [6] worked out at 40.7 µL/min/mg.
Consider `CN(CC(CCN1CC(N2CCOCC2)C1)c1ccc(Cl)c(Cl)c1)C(=O)c1ccccc1` (stereo not shown) [N-[2-(3,4-dichlorophenyl)-4-(3-morpholin-4-ylazetidin-1-yl)butyl]-N-methylbenzamide], for which the “functional NK2 receptor antagonism” value in data set [7] was “functional NK2 receptor antagonistic properties”.
